Laboratory results reported in patent US20240326697A1, “SOLID FORMS OF SELECTIVE ANDROGEN RECEPTOR MODULATORS” (priority 2007, published 2024).
Converted amounts (≈) assume the structure as drawn. Marks after values point to notes of the source that are not given here.

Legend:
Type in all cases: physicochemical
[1] = Measurement of the approximate solubility (solvent added in steps to the solid); settings: 23 °C, read-out: Solubility
Procedure: To determine the approximate solubility at room temperature, the solvent was added in steps to the solid material. After every addition, the sample was well stirred. The addition of solvent was continued until complete dissolution or until 15 ml of solvent was added.

[2] = Water solubility of solid forms A and B′ (suspension shaken, filtered, HPLC; residue by Raman); settings: for Solid residue: Raman, rough estimate
Procedure: During the following experiments: suspension equilibration, precipitation experiment, recrystallization, relative stability experiments and water solubility experiment, a filtration step was conducted. Centrifugal filter devices: Ultrafree-CL (0.22 la,m), Millipore; Centrifuge type or Eppendorf 5804R were used at a temperature of 22° C. and centrifugation program of 2 min 3000 rpm.
HPLC was used to analyse the purity of S-1. HP 1090M HPLC machine was used with the following conditions: • Column: Symmetry Shield RP18, 3.9×150 mm, 5 μm • Column temperature: 35° C. • Injection volume: 10 μL • Solvent: acetonitrile+water 1:1 v/v • Mobile phase A: 0.1% TFA-water • Mobile phase B: 0.1% TFA-acetonitrile • Flow rate: 1 mL/min. • Detection: UV at 271 nm • Run time: 21 min. • Retention time (S-1): 10.7 min.
Suspensions of the solid forms (25 or 50 mg in 3.5 or 7.0 ml bidistilled water) were shaken (800 rpm) and filtered after 0.5 h, 1.5 h, 4 h and 20 h. After filtration the solid residue was checked by Raman spectroscopy and the concentration in the clear solution was determined by HPLC.

[3] = Water vapor sorption (humidity chamber) and aqueous suspension, form produced; settings: for form B′ formed: powder stored in humidified chamber 96% r.h./23° C. (room temperature), 11 weeks, Raman and DSC
Procedure: The compound was stored in a glass tube under 96% r.h. (relative humidity) in a humidity chamber at room temperature. After different time of storage Raman measurements were conducted using hermetically closed glass tubes.

[4] = Suspension equilibration experiments; settings: stirred 20 h/23° C.
Procedure: Suspension equilibration experiments were carried out with 81-128 mg of the compound. The suspensions were stirred with a magnetic stirrer. The samples obtained after filtration were air dried at ambient temperature for a short time only to prevent possible desolvation of labile hydrates or solvates.

[5] = Dynamic vapor sorption (DVS); settings: 25° C.
Procedure: Dynamic vapor sorption quantification relates the mass of water absorbed and subsequently desorbed during the crystallization process. In order to define whether batch P1, P2 and P4 are hydrated polymorphs, DVS measurements were conducted (FIG. 9). A sample (13 to 14 mg) was placed on a Pt pan, and the sample was allowed to equilibrate at 25° C./50% r.h. before starting a pre-defined humidity program (1.0 hours 50%, from 50% r.h. to 95% r.h.: 5% r.h./hour, 10 hours at 95% r.h., from 95% r.h. to 0% r.h.: 5% r.h./hour, 10 hours at 0% r.h., from 0% r.h. to 50% r.h.: 5% r.h./hour, 1 hours at 50% r.h.

[6] = Relative stability of polymorphic forms under humid conditions (storage, DSC)
Procedure: (§1) Thermal analysis was carried out with a Perkin Elmer DSC7 with the following experimental conditions: 3 to 6 mg sample mass, closed gold sample pan, temperature range −50° C. to 120° C., heating rate 20 K/min. The samples were weighed in air or dry N2 atmosphere. Additional thermal analysis was conducted using a TA Instruments Q1000 DSC using hermetic aluminum pans under various conditions.
Polymorph A stays stable in its A form for at least 7 days under storage conditions of ambient temperature/75% RH (Relative Humidity), ambient temperature/100% RH, 30° C./75% RH and 50° C./0% RH.
In fact, polymorph D in the presence of moisture acts as the seed for the crystallization process and drives the transformation of polymorphs A and B′ into D, similar to its role in seeding the A to D crystallization in dry conditions. […] The amount of polymorph D initially added to the sample is very small that it isn't detectable by the DSC with heating rate of 10° C./min. […] The transformation process is speeded up in FIG. 17G (b) by storing the sample in water at 50° C. […] Further work has shown that the A and B′ convert to D in the presence of moisture at lower temperatures also albeit at slower rates.

[7] = Relative stability of polymorphic forms under dry conditions (heating, micronization)
Procedure: as §1
Thus forms A and B″ can be considered to be practically stable at ambient temperature. […] Micronization of the polymorph A particles under dry conditions also produced ˜25% conversion to B″.

Molecule C[C@](O)(COc1ccc(C#N)cc1)C(=O)Nc1ccc(C#N)c(C(F)(F)F)c1 [Form A, (S)-N-(4-cyano-3-(trifluoromethyl)phenyl)-3-(4-cyanophenoxy)-2-hydroxy-2-methylpropanamide] has a solubility ([1]; 1,4-dioxane, organic solvent or mixture, thermodynamic from solid, 1,4-dioxane, 23° C.) greater than 200 mg/mL, a solubility ([1]; TBME, organic solvent or mixture, thermodynamic from solid, TBME, 23° C.) greater than 200 mg/mL and a solubility ([1]; THF, organic solvent or mixture, thermodynamic from solid, THF, 23° C.) greater than 200 mg/mL. For the same molecule, the solubility ([1]; THF/n-heptane 1:1 v/v, organic solvent or mixture, thermodynamic from solid, THF/n-heptane 1:1 v/v, 23° C.) was greater than 200 mg/mL, the solubility ([1]; THF/n-heptane 1:3 v/v, organic solvent or mixture, thermodynamic from solid, THF/n-heptane 1:3 v/v, 23° C.) was 65 mg/mL (≈ 167 mM) and the solubility ([1]; acetic acid, organic solvent or mixture, thermodynamic from solid, acetic acid, 23° C.) was greater than 200 mg/mL. It also gave a solubility ([1]; acetone, organic solvent or mixture, thermodynamic from solid, acetone, 23° C.) greater than 200 mg/mL, a solubility ([1]; acetone/n-heptane 1:1 v/v, organic solvent or mixture, thermodynamic from solid, acetone/n-heptane 1:1 v/v, 23° C.) greater than 200 mg/mL and a solubility ([1]; acetone/n-heptane 1:3 v/v, organic solvent or mixture, thermodynamic from solid, acetone/n-heptane 1:3 v/v, 23° C.) of 90 mg/mL (≈ 231 mM). It also gave a solubility ([1]; acetonitrile, organic solvent or mixture, thermodynamic from solid, acetonitrile, 23° C.) greater than 200 mg/mL, a solubility ([1]; acetonitrile/toluene 1:1 v/v, organic solvent or mixture, thermodynamic from solid, acetonitrile/toluene 1:1 v/v, 23° C.) greater than 200 mg/mL and a solubility ([1]; acetonitrile/toluene 1:3 v/v, organic solvent or mixture, thermodynamic from solid, acetonitrile/toluene 1:3 v/v, 23° C.) of 170 mg/mL (≈ 437 mM). It also gave a solubility ([1]; dichloromethane, organic solvent or mixture, thermodynamic from solid, dichloromethane, 23° C.) greater than 200 mg/mL, a solubility ([1]; ethanol, organic solvent or mixture, thermodynamic from solid, ethanol, 23° C.) greater than 200 mg/mL and a solubility ([1]; ethanol/n-heptane 1:1 v/v, organic solvent or mixture, thermodynamic from solid, ethanol/n-heptane 1:1 v/v, 23° C.) of 180 mg/mL (≈ 462 mM). It also gave a solubility ([1]; ethanol/n-heptane 1:3 v/v, organic solvent or mixture, thermodynamic from solid, ethanol/n-heptane 1:3 v/v, 23° C.) of 50 mg/mL (≈ 128 mM), a solubility ([1]; ethanol/water 1:1 v/v, aqueous with cosolvent or surfactant or cyclodextrin, thermodynamic from solid, ethanol/water 1:1 v/v, 23° C.) of 50 mg/mL (≈ 128 mM) and a solubility ([1]; ethanol/water 1:3 v/v, aqueous with cosolvent or surfactant or cyclodextrin, thermodynamic from solid, ethanol/water 1:3 v/v, 23° C.) of less than 5 mg/mL. For the same molecule, the solubility ([1]; ethanol/water 3:1 v/v, aqueous with cosolvent or surfactant or cyclodextrin, thermodynamic from solid, ethanol/water 3:1 v/v, 23° C.) was greater than 200 mg/mL, the solubility ([1]; ethyl acetate, organic solvent or mixture, thermodynamic from solid, ethyl acetate, 23° C.) was greater than 200 mg/mL and the solubility ([1]; ethyl acetate/n-heptane 1:1 v/v, organic solvent or mixture, thermodynamic from solid, ethyl acetate/n-heptane 1:1 v/v, 23° C.) was 65 mg/mL (≈ 167 mM). It also gave a solubility ([1]; ethyl acetate/n-heptane 1:2 v/v, organic solvent or mixture, thermodynamic from solid, ethyl acetate/n-heptane 1:2 v/v, 23° C. (B′: solid form transformation into solid form A)) of 9 mg/mL (≈ 23.1 mM), a solubility ([1]; ethyl acetate/n-heptane 1:3 v/v, organic solvent or mixture, thermodynamic from solid, ethyl acetate/n-heptane 1:3 v/v, 23° C. (turbid solution)) of less than 5 mg/mL and a solubility ([1]; ethyl acetate/n-pentane 1:2 v/v, organic solvent or mixture, thermodynamic from solid, ethyl acetate/n-pentane 1:2 v/v, 23° C.) of 13 mg/mL (≈ 33.4 mM). It also gave a solubility ([1]; ethyl formate/n-pentane 1:2 v/v, organic solvent or mixture, thermodynamic from solid, ethyl formate/n-pentane 1:2 v/v, 23° C.) of 12 mg/mL (≈ 30.8 mM), a solubility ([1]; methyl acetate/n-pentane 1:2 v/v, organic solvent or mixture, thermodynamic from solid, methyl acetate/n-pentane 1:2 v/v, 23° C.) of 8 mg/mL (≈ 20.5 mM) and a solubility ([1]; toluene, organic solvent or mixture, thermodynamic from solid, toluene, 23° C. (turbid solution)) of less than 6 mg/mL. For the same molecule, the solubility in water ([2]; 22° C., stated as embodiment) was 0.023 to 0.027 mg/mL, the Solid residue ([2]; water, 22° C., 0.5 h) was “A + B′ (approx. 95% + 5%) ^c)” and the Solid residue ([2]; water, 22° C., 1.5 h) was “A + B′ (approx. 90% + 10%) ^c)”. For the same molecule, the Solid residue ([2]; water, 22° C., 4.0 h) was “A + B′ (approx. 85% + 15%) ^c)”, the Solid residue ([2]; water, 22° C., 20 h) was “A + B′ (approx. 75% + 25%) ^c)” and the “pH of the solution” value ([2]; water, 22° C., 20 h suspension equilibration) was “^d) pH of the solution: 8.7”. For the same molecule, the solubility ([2]; water, 22° C., suspension equilibration time 0.5 h, mean of two measurements (±standard deviation)) was 21.0 ± 3.9 mg/1000 ml, the solubility ([2]; water, 22° C., suspension equilibration time 1.5 h, mean of two measurements (±standard deviation)) was 24.0 ± 1.4 mg/1000 ml and the solubility ([2]; water, 22° C., suspension equilibration time 1.5 h, mean of two measurements (±standard deviation), listed as A) was 24.0±1.4 mg/1000 ml. For the same molecule, the solubility ([2]; water, 22° C., suspension equilibration time 4.0 h, mean of two measurements (±standard deviation)) was 27.6 ± 1.5 mg/1000 ml, the solubility ([2]; water, 22° C., suspension equilibration time 20 h, mean of two measurements (±standard deviation)) was 24.5 ± 1.7 ^d) mg/1000 ml and the solubility ([2]; water, 22 °C, water, thermodynamic from solid, stated as embodiment, read-out: solubility in water) was 0.02 to 0.03 mg/mL (≈ 0.0514 to 0.0771 mM). The “form B′ formed” value ([3]; listed as A) was roughly 20% form B′, the “form B′ formed” value ([3]; listed as form A) was “approx. 20%” and the Form produced ([3]; powder stored in humidified chamber 96% r.h./23° C., 4 weeks) was “A + small”. The Form produced ([3]; powder stored in humidified chamber 96% r.h./23° C., 9 weeks) was “A + form B′”, the Form produced ([3]; suspension in water 111/5.0 mg/ml, sonication 5 min., stirred 19 h/37° C., filtered & air dried) was “B′” and the Form produced ([3]; water + 5% acetic acid v/v 105/2.0 mg/ml, stirred 17 h/40° C., cooled to R.T. and removed solution) was “B′”. For the same molecule, the Form produced ([3]; water + 5% ethanol v/v 123/2.1 mg/ml, stirred 3 h/83° C., cooled to 47° C. within 1.5 h, filtered & air dried) was “B′”, the Form produced ([4]; ethyl formate + n-pentane 1:2 v/v 112/2.0 mg/ml) was “no transformation of solid form A” and the Form produced ([4]; methyl acetate + n-pentane 1:2 v/v 126/2.0 mg/ml) was “no transformation of solid form A”. The “maximum water content at 93% r.h.” value [5] was 1.5%, the “solid form change, seeded with a small amount of D” value (“solid form change, seeded” below) ([6]; 50° C./75% RH, after 24 hours) was “most of the polymorph form A has been converted to B′ but a small amount of sample has also been converted to D” and the “time stable in its A form on storage” value ([6]; each of ambient temperature/75% RH, ambient temperature/100% RH, 30° C./75% RH and 50° C./0% RH) was “at least 7 days”. For the same molecule, the “stable through (storage time)” value ([6]; stored at 25° C./60% RH) was no less than 36 months, the “stable through (storage time)” value ([6]; stored at 30° C./65% RH) was no less than 9 months and the “solid form change on storage” value ([6]; stored at 40° C./75% RH) was “converts to B′ when stored at 40° C./75% RH within one month”. For the same molecule, the “solid form change on storage” value ([6]; stored at 40° C./75% RH, listed as polymorph A) was “converted to B′ within one month”, the “solid form change on storage” value ([6]; stored at 50° C./75% RH) was “converts to B′” and the “solid form change, seeded” value ([6]; stored in water at 50° C., after 6 hours) was “converted to both B′ and D”. The “solid form change, seeded” value ([6]; stored in water at 50° C., by 24 hours) was “predominantly in form D”, the “solid form change on heating” value ([7]; heating to 110° C. in the presence of D) was “rearrange into D” and the “conversion to B″” value ([7]; micronization of the particles under dry conditions) was roughly 25%.
